The values that follow come from EP0184990A1, “Alkylidenedioxy compounds” (CIBA-GEIGY AG, priority 1984, dated 1986).

Series [1] in a line: Maximum tolerated dose in mice after single administration. Details: species or system Mäusen. The following applies: mouse, in vivo, 7-day observation, read-out: maximal tolerierte Dosis. The procedure: Die pharmakologische Wirksamkeit der Verbindungen der vorliegenden Erfindung ist begleitet von einer guten Verträglichkeit. So liegt die maximal tolerierte Dosis für das obengenannte 6,6-Dimethyl-4,5-dihydro-6H-(1,3-dioxolo)r3,41naphthor1,2-blpyran in Mäusen nach einmaliger p.o- und i.p.-Verabreichung und anschliessender 7-tägiger Beobachtungsdauer über 2500 mg/kg bzw. über 1250 mg/kg.

In series [2] the test system is Rauscher-Leukämie-Virus (RLV, ein RNS-Tumorvirus). The series can be described thus: Rauscher leukaemia virus infection in mice, survival time. Particulars: 20 p.o. administrations of 125 mg/kg each, female Balb/c mice infected with Rauscher leukaemia virus; controls 31,7 Tage (p < 0,001 Cox-Test). Format: in vivo, weibliche Balb/c-Mäuse. The source says: Die Wirkung auf Virusinfektionen kann anhand von in vivo-Testanordnungen festgestellt werden. So besitzen Verbindungen der Formel I in Tierexperimenten bei gewissen neoplastischen Krankheiten, die durch RNS-Tumorviren hervorgerufen werden, oder bei denen RNS-Tumorviren nachweisbar sind, eine starke Wirksamkeit. Sie verlängern z.B. die mittlere Ueberlebensdauer von Mäusen nach Infektion mit Rauscher-Leukämie-Virus (RLV, ein RNS-Tumorvirus).
Bei den Versuchen mit Rauscher-Leukämie 4 Q (NIH) werden weibliche Balb/c-Mäuse (28 bis 34 Tage alt) mit 0,2 ml einer zehnfach mit Hanks Lösung verdünnten Virussuspension aus Milzmaterial von 4-6 Wochen vorher infizierten Mäusen infiziert. […] Die erste Verabreichung erfolgt 30 Minuten vor der Infektion, weitere Verabreichungen täglich einmal und fünfmal in der Woche während 4 Wochen. Als Kriterium für die Wirkung dient die Verlängerung der Ueberlebenszeit. Während bei den Kontrolltieren ab 30 Tagen nach der Infektion eine Leukämie mit leukämischen Blutzellen von über 50000/mm^3 gefunden werden können und die Tiere zu sterben beginnen, wird die Ueberlebenszeit der mit 125 mg/kg p.o. der Testsubstanz behandelten weiblichen Mäuse signifikant verlängert. […]

Read-outs that look alike come from different tables or passages of the source.

As for `CC1(C)CCc2c3c(c4ccccc4c2O1)OCO3` [Beispiel 1, 6,6-Dimethyl-4,5-dihydro-6H-(1,3-dioxolo)f3,41-naphthof1,2-blpyran], the MTD at 168 h in series [1] (ip, single i.p. administration) was over 1250 mg/kg; in series [1] (po, single p.o. administration), over 2500 mg/kg. Moreover, the Ueberlebenszeit in series [2] is 60,9 Tage.
